# From article PMC8187479, “Sugar phosphate activation of the stress sensor eIF2B” (Nature Communications, 2021)
# Molecular target: T1, eIF2Bα (Homo sapiens, UniProt Q14232)
# T1 construct: made in house; host or cells: E. coli BL21(DE3)
# T1 sequence (Q14232 1-305): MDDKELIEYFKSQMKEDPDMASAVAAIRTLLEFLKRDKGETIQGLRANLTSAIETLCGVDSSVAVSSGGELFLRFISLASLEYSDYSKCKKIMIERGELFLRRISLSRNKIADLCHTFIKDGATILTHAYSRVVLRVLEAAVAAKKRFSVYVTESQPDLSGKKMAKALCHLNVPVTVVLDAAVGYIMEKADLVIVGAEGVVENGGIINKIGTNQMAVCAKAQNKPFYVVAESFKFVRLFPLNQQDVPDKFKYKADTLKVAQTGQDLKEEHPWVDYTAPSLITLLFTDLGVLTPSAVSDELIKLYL
# Assay: MIDAS (mass spectrometry integrated with equilibrium dialysis) metabolite binding screen
# Experimental: Metabolites were combined into four defined screening pools. […] To the reverse side, 300 μL of 50 μM per metabolite pool was aliquoted and sealed (metabolite chamber). Loaded dialysis plates were placed in the dark at 4 °C on a rotating shaker (120 rpm) and incubated for 40 h. Post-dialysis, metabolites were isolated from each chamber by cold methanol extraction. Each sample was analyzed in technical triplicate by FIA-MS on a SCIEX X500R QTOF MS with interspersed blanks injections. The input metabolite pools were assayed at the beginning, middle, and end of each MS method batch for QC and normalization.
# MIDAS FIA-MS spectra were processed in SCIEX OS 1.6 software to determine metabolite abundances by integrating the mean area under the curve for each extracted ion chromatogram. For each dialysis replicate, log2(fold change) for each metabolite was calculated as the difference between the log2 abundance in the protein chamber and metabolite chamber. For each technical triplicate, up to one outlier was removed using a z-score cutoff of five (<0.1% of observations). The corrected technical replicates were collapsed to one mean fold-change summary per protein-metabolite pair. To remove fold-change variation that was not specific to a given metabolite-protein pair, the first three principal components of the total screening dataset were removed on a per metabolite pool basis by subtracting the projection of the first 3 principal components, creating log2(corrected fold change). Protein-metabolite z-scores were determined by comparing the target protein-metabolite log2(corrected fold change) to a no-signal model for that metabolite using measures of the central tendency (median) and standard deviation (extrapolated from the 25–75% quantiles), which are robust to the signals in the tails of a metabolite’s fold-change distribution. Z-scores were false-discovery rate controlled using Storey’s q-value (qvalue, R) and protein-metabolite interactions with q-values < 0.1 were considered significant.
# [1] = MIDAS metabolite binding screen with eIF2Bα, sheet "eIF2Ba"
# [2] = MIDAS screen, sheet eIF2Ba, metabolites screened in pools 1-4, p-value and q-value given
SMILES,log2(corrected fold change) [1],log2(corrected fold change) [2]
NC(=O)c1ccc[n+]([C@@H]2O[C@H](COP(=O)([O-])OP(=O)(O)OC[C@H]3O[C@@H](n4cnc5c(N)ncnc54)[C@H](O)[C@@H]3O)[C@@H](O)[C@H]2O)c1 [Nicotinamide adenine dinucleotide],-0.063,
COc1ccc2[nH]cc(CCN)c2c1 [5-Methoxytryptamine],,0.274
CC(O)(CC(=O)O)CC(=O)O [3-Hydroxy-3-methylglutaric acid],0.0406,
O=C(O)C(=O)CS(=O)(=O)O [3-Sulfopyruvic acid],,-0.112
Nc1ccn([C@@H]2O[C@H](CO)[C@@H](O)[C@H]2O)c(=O)n1 [Cytidine],,0.2698
CCC(C)C(O)C(=O)O (stereo not shown) [2-Hydroxy-3-methylpentanoic acid],-0.0302,
CN(CC(=O)O)C(=N)NP(=O)(O)O [Phosphocreatine],-0.03403,
C[N+](C)(C)CCOP(=O)([O-])OC[C@H](O)CO [Choline glycerophosphate],-0.09086,
Cc1cn([C@@H]2O[C@H](CO)[C@@H](O)[C@H]2O)c(=O)[nH]c1=O [5-Methyluridine],0.07915,
CC(C)(COP(=O)(O)OP(=O)(O)OC[C@H]1O[C@@H](n2cnc3c(N)ncnc32)[C@H](O)[C@@H]1OP(=O)(O)O)[C@@H](O)C(=O)NCCC(=O)NCCS [Coenzyme A],0.05668,
"O=C(O)C(O)CO (stereo not shown) [2,3-Dihydroxypropanoic acid]",0.03679,
N[C@@H](CCCCN[C@@H](CCC(=O)O)C(=O)O)C(=O)O [L-Saccharopine],-0.0272,
NCc1[nH]cc(CCC(=O)O)c1CC(=O)O [Porphobilinogen],,-0.05886
C[C@@H](O)[C@H](N)C(=O)O [L-Threonine],-0.05619,
CCC(=O)SCCNC(=O)CCNC(=O)[C@H](O)C(C)(C)COP(=O)(O)OP(=O)(O)OC[C@H]1O[C@@H](n2cnc3c(N)ncnc32)[C@H](O)[C@@H]1OP(=O)(O)O [Propionyl coenzyme A],,0.4521
NCCC(=O)O [Beta-alanine],0.0004222,
CC(=O)OCC[N+](C)(C)C [Acetylcholine],,-0.07879
CC(=O)NCCCCN [N-Acetylputrescine],,-0.2203
O=C(O)[C@H](O)[C@@H](O)[C@H](O)[C@H](O)CO [D-Gluconic acid],-0.01138,
Nc1ncnc2[nH]cnc12 [Adenine],,-0.2309
Nc1ccn([C@H]2C[C@H](O)[C@@H](COP(=O)(O)O)O2)c(=O)n1 [2-Deoxy-5-cytidylic acid],,0.04298
"N[C@@H](Cc1cc(I)c(O)c(I)c1)C(=O)O [3,5-Diiodo-L-tyrosine]",,0.05791
NC(N)=NCC(=O)O [Guanidineacetic acid],,0.1469
C/C(=C/C(=O)O)C(=O)O [Citraconic acid],,0.0972
CC(C)(CO)[C@@H](O)C(=O)NCCC(=O)O [Pantothenic acid],0.0165,
CC(C)CC(=O)NCC(=O)O [N-Isovalerylglycine],-0.07333,
NC(=O)NCCC(=O)O [3-Ureidopropionic acid],,0.07649
CC(O)(CC(=O)O)CC(=O)SCCNC(=O)CCNC(=O)[C@H](O)C(C)(C)COP(=O)(O)OP(=O)(O)OC[C@H]1O[C@@H](n2cnc3c(N)ncnc32)[C@H](O)[C@@H]1OP(=O)(O)O (stereo partly shown) [3-Hydroxy-3-methylglutaryl coenzyme A],0.00866,
